Measurements taken from patent US8906952B2, “Indole derivative or pharmaceutically acceptable salt thereof, preparation method thereof, and pharmaceutical composition for preventing or treating metabolic diseases containing same as active ingredient” (Korea Research Institute of Bioscience and Biotechnology, priority 2011, dated 2014).
Where two headings read alike, the source gives them in different places.

Columns and labels:
human DGAT1 = target: T1, human DGAT1 (Homo sapiens, UniProt O75907); assay: DGAT enzyme inhibition test, hDGAT1 enzyme from sf9 insect cells; assay type: biochemical; conditions: enzyme from sf9 cells overexpressing hDGAT1; read-out: hDGAT-1 (sf9) IC50
T1 construct: made in house; host or cells: sf9 insect cells
T1 sequence (O75907 1-488): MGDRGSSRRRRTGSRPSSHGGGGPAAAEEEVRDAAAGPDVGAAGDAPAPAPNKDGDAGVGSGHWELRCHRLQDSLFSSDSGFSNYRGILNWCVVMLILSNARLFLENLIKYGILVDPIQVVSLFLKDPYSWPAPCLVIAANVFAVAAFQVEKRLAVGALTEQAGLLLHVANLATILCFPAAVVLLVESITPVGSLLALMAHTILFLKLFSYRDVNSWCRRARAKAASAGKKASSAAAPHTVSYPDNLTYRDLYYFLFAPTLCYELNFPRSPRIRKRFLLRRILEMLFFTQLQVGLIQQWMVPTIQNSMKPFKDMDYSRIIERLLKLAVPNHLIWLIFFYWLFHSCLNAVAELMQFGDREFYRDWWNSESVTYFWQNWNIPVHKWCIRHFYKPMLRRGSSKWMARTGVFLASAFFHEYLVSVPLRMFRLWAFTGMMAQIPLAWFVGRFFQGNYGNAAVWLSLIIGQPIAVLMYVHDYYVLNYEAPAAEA
Source text: (§1) To investigate inhibitory effect of the compounds of Examples 1-33 against DGAT enzyme activity, DGAT enzyme inhibition and DGAT2 selectivity were investigated using zymogen including:
(§2) 1) hDGAT1 and hDGAT2 enzymes, derived from insect cell overexpressing human DGAT1 and DGAT2 (‘sf9’), respectively,
(§3) To be specific, for the purpose of measuring human-derived DGAT enzyme inhibitory activity, using the zymogen, including enzymes derived from insect cell overexpressing human DGAT1 and DGAT2 (‘sf9’), microsomal protein isolated from human duodenal adenocarcinoma (‘Hutu 80’), and microsomal protein isolated from rat, and according to Coleman et al., (Methods Enzymol., 98-103, 1992), and substrate including 1,2-diacylglycerol(Sigma, D0138) and [^14C]palmitoyl-CoA (Amersham, CFA583), the amount of radiation of [^14C]triacylglycerol produced after enzymatic reaction was measured.
(§4) To be more specific, to the reaction solution containing 175 mM Tris-HCl (pH 8.0), 20 μl bovine serum albumin (10 mg/ml), 100 mM magnesium chloride, 30 μM [^14C]palmitoyl CoA (0.02 μCi, Amersham) and 200 μM 1,2-dioleoylglycerol, reagent dissolved in dimethylsulfoxide (10.0 μl) was added. After introducing 100 to 200 μg isolated microsomal protein and allowing the same to react at 25° C. for 10 min, the reaction was stopped by adding 1.5 ml stop solution (2-propanol:heptane:water=80:20:2, v:v:v). To isolate the product of the reaction (i.e., [^14C]triacylglycerol), 1 ml heptane and 0.5 ml distilled water were added and then decocted. After taking 1 ml supernatant, 2 ml alkaline ethanol solution (ethanol:0.5 N sodium hydroxide:water=50:10:40, v:v:v) were added and then decocted. After taking 0.65 ml supernatant from the decoction, the amount of radiation was measured with liquid scintillation counter (LSC). The DGAT inhibitory activity was calculated with Mathematical Expression 1 below:
(§5) T denotes cpm of experimental group in which the enzymatic reaction solution was treated with the sample,
(§6) C denotes cpm of control group in which the enzymatic reaction solution was not treated with the sample, and
(§7) B denotes cpm of control group treated with the sample without zymogen.

HepG2 cells = assay: DGAT inhibitory effect in HepG2 cells (triglyceride production from [14C]glycerol); assay type: cell-based; conditions: Homo sapiens; for activity at 10 µM: HepG2, 6 h, DMSO control = 100, read-out: Triglyceride production rate (%)/HepG2 cells at 10 μM; for inhibition at 10 µM: HepG2, 10 μM, read-out: biosynthesis inhibition rate of triglyceride
Procedure: To investigate inhibition effect on intracellular DGAT enzyme activity of the compounds obtained in Examples 1-51, intracellular DGAT enzyme activity was measured using human-derived liver HepG2 cells.
HepG2 cells were purchased from ATCC, and cultured in 37° C., 5% CO2 incubator including minimum essential medium (2 mM L-glutamine, earle's BSS adjusted to contain 1.5 g/L sodium bicarbonate, 0.1 mM nonessential amino acids, and 1 mM sodium pyruvate) added with 10% fetal bovine serum (FBS) and 1% antibiotic (100 U/ml penicillin and 100 µg/ml streptomycin).
The intracellular DGAT enzyme activity was measured based on an amount of triglycerides produced in the cultured HepG2 cells, by adding 10 μM enzyme inhibitor compounds obtained in Examples 1-51, respectively, and then determining the effect of the enzyme inhibitors according to reduction rate of the triglyceride production.
Specifically, cells were seeded 1×10^6 cell/ml per well of the 24 well culture plate, and 24 hours after incubation, medium was exchanged with FBS-free DMEM medium, and sample of 0.2 mCi [^14C]glycerol (Amersham) was added as substrate, and the reaction was allowed to occur for 6 hr. The induced production of triglyceride was catalyzed by the DGAT enzyme, and DGAT enzyme activity was determined based on the amount of production of triglyceride which was measured based on the amount of radiation. The sample was dissolved in dimethylsulfoxide (DMSO) to be used, and the control group in the triglyceride production reaction was reacted with dimethylsulfoxide only (i.e., without sample), and the amount of the triglyceride production rate was set to 100.
After the reaction completed, the substrate [^14C]glycerol which was either not absorbed into cells or not used for the reaction, were removed with phosphate-buffer-saline (PBS), and 0.5 ml extraction solvent (hexane:isopropanol=3:2, v:v) was added to extract full fat containing triglycerides. With 0.5 ml extraction solvent, extract was obtained two times for 30 min each, and 1 ml of the extract was concentrated with nitrogen gas. After removing the extraction solvent, the total fat was dissolved in organic solvent (chloroform:methanol=2:1) and spotted with thin-layer chromatography (TLC:silica gel 60F254, thickness: 0.5 mm, Merck) on the developing solvent (hexane:diethyl ether:acetic acid=80:20:1, v: v: v). Triglycerides (Rf value: 0.4) were isolated on TLC, and after exposing the TLC plate to the film with photosensitivity to radiation energy (imaging plate' Fujifilm, BMS-MS 2040) for 3 hr, the amount of [^14C] radiation of triglyceride was measured by imaging analysis (FLA 7000). The remaining cells after the extraction were dissolved in 0.3 ml 0.1 N sodium hydroxide for use in the measurement of protein concentration of the cells used for the reaction.
The experimental errors among the respective experimental groups were compensated with the experimental value which was obtained by dividing the measured radiation of triglyceride by protein concentration, and the production rate of triglyceride according to the respective compounds of Examples 1-51 are tabulated below.

human DGAT2 = target: T2, human DGAT2 (Homo sapiens, UniProt Q96PD7); assay: DGAT enzyme inhibition test, hDGAT2 enzyme from sf9 insect cells (DGAT2 selectivity); assay type: biochemical
T2 construct: made in house; host or cells: sf9 insect cells
T2 sequence (Q96PD7 1-388): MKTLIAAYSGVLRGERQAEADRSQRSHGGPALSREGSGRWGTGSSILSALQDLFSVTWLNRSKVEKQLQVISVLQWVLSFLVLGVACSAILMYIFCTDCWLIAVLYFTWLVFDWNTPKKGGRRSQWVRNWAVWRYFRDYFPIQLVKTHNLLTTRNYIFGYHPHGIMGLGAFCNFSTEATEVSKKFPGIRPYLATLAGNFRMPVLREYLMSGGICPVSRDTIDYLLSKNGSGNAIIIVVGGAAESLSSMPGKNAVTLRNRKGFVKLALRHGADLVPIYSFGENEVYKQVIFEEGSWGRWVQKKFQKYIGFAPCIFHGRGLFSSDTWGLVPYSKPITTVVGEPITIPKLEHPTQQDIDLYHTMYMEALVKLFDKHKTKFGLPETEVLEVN
Source text: as §1, §2, §3, §4, §5, §6, §7

[1] = 10 μM, enzyme from sf9 cells overexpressing hDGAT2, read-out: hDGAT-2 (sf9) inhibition rate(%)at 10 μM
[2] = concentration of 10 μM, read-out: hDGAT2 inhibition

## CCCn1cc(/C=C/C(=O)N(NC(=O)c2cccc(F)c2)C(C)C)c2ccccc21 [Example 42, (E)-3-fluoro-N′-isopropyl-N′-(3-(1-propyl-1H-indol-3-yl)acryloyl)benzohydrazide]
Human DGAT1
  IC50: 3.6 µM
HepG2 cells
  activity at 10 µM: 79.9%
  inhibition at 10 µM: 20 to 30%
Human DGAT2; [1]
  inhibition at 10 µM: 32.4%

## CC(C)=CCn1cc(/C=C/C(=O)N(NC(=O)c2ccc(C)cc2)C(C)C)c2ccccc21 [Example 51, (E)-N′-isopropyl-4-methyl-N′-(3-(1-(3-methylbut-2-enyl)-1H-indol-3-yl)acryloyl)benzohydrazide]
Human DGAT1
  IC50: 9.9 µM
Human DGAT2; [1]
  inhibition at 10 µM: 37.1%

## CC(C)CCn1cc(/C=C/C(=O)N(NC(=O)c2cccc(F)c2)C(C)C)c2ccccc21 [Example 39, (E)-3-fluoro-N′-(3-(1-isopentyl-1H-indol-3-yl)acryloyl)-N′-isopropylbenzohydrazide]
Human DGAT1
  IC50: 1.8 µM
HepG2 cells
  activity at 10 µM: 50.8%
Human DGAT2; [1]
  inhibition at 10 µM: 42.3%

## CC(C)N(NC(=O)c1ccncc1)C(=O)/C=C/c1cn(C(=O)OC(C)(C)C)c2ccccc12 [Example 43, (E)-tert-butyl 3-(3-(2-isonicotinoyl-1-isopropylhydrazinyl)-3-oxoprop-1-enyl)-1H-indole-1-carboxylate]
Human DGAT1
  IC50: 4 µM
HepG2 cells
  activity at 10 µM: 81.3%
Human DGAT2; [1]
  inhibition at 10 µM: 0.6%
Human DGAT2; [2]
  inhibition at 10 µM: < 11%

## CC(C)N(NC(=O)c1cccc(F)c1)C(=O)/C=C/c1cn(C(=O)OC(C)(C)C)c2cc(F)ccc12 [Example 38, (E)-tert-butyl 6-fluoro-3-(3-(2-(3-fluorobenzoyl)-1-isopropylhydrazinyl)-3-oxoprop-1-enyl)-1H-indole-1-carboxylate]
Human DGAT1
  IC50: > 100 µM
HepG2 cells
  activity at 10 µM: 85.7%
Human DGAT2; [1]
  inhibition at 10 µM: < 0%

## Cc1ccc2c(/C=C/C(=O)N(NC(=O)c3cccc(F)c3)C(C)C)cn(C(=O)OC(C)(C)C)c2c1 [Example 37, (E)-tert-butyl 3-(3-(2-(3-fluorobenzoyl)-1-isopropylhydrazinyl)-3-oxoprop-1-enyl)-6-methyl-1H-indole-1-carboxylate]
Human DGAT1
  IC50: > 100 µM
HepG2 cells
  activity at 10 µM: 79.2%
  inhibition at 10 µM: 20 to 30%
Human DGAT2; [1]
  inhibition at 10 µM: 2.9%

## CC(C)N(NC(=O)c1cccc(F)c1)C(=O)/C=C/c1cn(C)c2ccccc12 [Example 40, (E)-3-fluoro-N′-isopropyl-N′-(3-(1-methyl-1H-indol-3-yl)acryloyl)benzohydrazide]
Human DGAT1
  IC50: > 100 µM
HepG2 cells
  activity at 10 µM: 90%
Human DGAT2; [1]
  inhibition at 10 µM: 2.2%

## Cc1ccc2c(c1)c(/C=C/C(=O)N(NC(=O)c1cccc(F)c1)C(C)C)cn2C(=O)OC(C)(C)C [Example 35, (E)-tert-butyl 3-(3-(2-(3-fluorobenzoyl)-1-isopropylhydrazinyl)-3-oxoprop-1-enyl)-5-methyl-1H-indole-1-carboxylate]
Human DGAT1
  IC50: 3.2 µM
HepG2 cells
  activity at 10 µM: 57.6%
Human DGAT2; [1]
  inhibition at 10 µM: 2%
Human DGAT2; [2]
  inhibition at 10 µM: < 11%

## CC(C)=CCn1cc(/C=C/C(=O)N(NC(=O)c2cccc(C)c2)C(C)C)c2ccccc21 [Example 50, (E)-N′-isopropyl-3-methyl-N′-(3-(1-(3-methylbut-2-enyl)-1H-indol-3-yl)acryloyl)benzohydrazide]
Human DGAT1
  IC50: 4.6 µM
Human DGAT2; [1]
  inhibition at 10 µM: 39%

## CC(C)N(NC(=O)c1cccc(Cl)c1)C(=O)/C=C/c1cn(C(=O)OC(C)(C)C)c2ccccc12 [Example 45, (E)-tert-butyl 3-(3-(2-(3-chlorobenzoyl)-1-isopropylhydrazinyl)-3-oxoprop-1-enyl)-1H-indole-1-carboxylate]
Human DGAT1
  IC50: 2.2 µM
HepG2 cells
  activity at 10 µM: 97.9%
Human DGAT2; [1]
  inhibition at 10 µM: 28.7%

## CC(C)c1ccc2c(/C=C/C(=O)N(NC(=O)c3cccc(F)c3)C(C)C)cn(C(=O)OC(C)(C)C)c2c1 [Example 36, (E)-tert-butyl 3-(3-(2-(3-fluorobenzoyl)-1-isopropylhydrazinyl)-3-oxoprop-1-enyl)-6-isopropyl-1H-indole-1-carboxylate]
Human DGAT1
  IC50: > 100 µM
HepG2 cells
  activity at 10 µM: 75%
  inhibition at 10 µM: 20 to 30%
Human DGAT2; [1]
  inhibition at 10 µM: 3.6%

## CCn1cc(/C=C/C(=O)N(NC(=O)c2cccc(F)c2)C(C)C)c2ccccc21 [Example 41, (E)-N′-(3-(1-ethyl-1H-indol-3-yl)acryloyl)-3-fluoro-N′-isopropylbenzohydrazide]
Human DGAT1
  IC50: 8.1 µM
HepG2 cells
  activity at 10 µM: 79.4%
  inhibition at 10 µM: 20 to 30%
Human DGAT2; [1]
  inhibition at 10 µM: 20.3%

## CC(C)=CCn1cc(/C=C/C(=O)N(NC(=O)c2cccc(F)c2)C(C)C)c2ccccc21 [Example 34]
Human DGAT1
  IC50: 7.2 µM
HepG2 cells
  activity at 10 µM: 58%
Human DGAT2; [1]
  inhibition at 10 µM: 18.5%
